How the values were obtained:
pMAPK = pMAPK immunoblot in Nthy-ori-3-1 cells; format: cell-based, human; settings: Nthy-ory-3-1, non-transformed with oncogenic RET
Description: FIG. 3: Photographs of blots showing inhibition of RET protein endogenously expressed in TT cells (human MTC cell line expressing RET/C634W) by indicated concentrations of Pz-1 or vehicle (NT: not treated) and reduced effects in thyroid non-transformed Nthy-ori-3-1 cells. Serum-starved human TT and thyroid non-transformed Nthy-ori-3-1 cell lines were treated for 2 hr with indicated concentrations of Pz-1. 50 μg of total cell lysates were subjected to immunoblotting with anti-phospho-Y1062 (αp1062) and anti-phospho-905 (αpY905) RET antibodies, anti-phospho-MAPK (αpMAPK, T302/Y304), and anti-phospho-SHC (αpSHC, Y317) antibodies. The blots were normalized using anti-RET (αRET) and anti-SHC (αSHC).
The inhibition of RET auto-phosphorylation by Pz-1 was measured in several different cell lines including NIH3T3 fibroblasts expressing RET/C634Y or RET/M918T, TT expressing RET/C634W (MTC), Nthy-ory-3-1 (thyroid, non-transformed with RET; negative control), HEK293/RET/PTC1 (CCDC6-RET that can be found in PTC & lung cancer), HEK293/RET-KIF5B (that can be found in lung cancer), HEK293/RET/PTC3 (NCOA4-RET, that can be found in PTC & lung cancer), and HEK293 transfected with RET/C634R-V804M (FIGS. 1-3). […]
Protein lysates were prepared according to standard procedures. […] Immune complexes were detected with the enhanced chemiluminescence kit (Amersham Pharmacia Biotech, Little Chalfort, UK). […]

RET/C634Y = molecular target: T1, RET/C634Y (Homo sapiens, UniProt P07949, C634Y); assay: In vivo target inhibition, RET phosphorylation and signaling in RET/C634Y-induced tumors; design: species or system nude mice; settings: 48 hr, 1.0 or 3.0 mg/kg daily
T1 construct: expressed in transfected cells; host or cells: NIH3T3 fibroblasts, grown as tumours in BALB/c nu/nu mice
T1 sequence (P07949 29-1072 isoform P07949-2 C634Y limits assumed): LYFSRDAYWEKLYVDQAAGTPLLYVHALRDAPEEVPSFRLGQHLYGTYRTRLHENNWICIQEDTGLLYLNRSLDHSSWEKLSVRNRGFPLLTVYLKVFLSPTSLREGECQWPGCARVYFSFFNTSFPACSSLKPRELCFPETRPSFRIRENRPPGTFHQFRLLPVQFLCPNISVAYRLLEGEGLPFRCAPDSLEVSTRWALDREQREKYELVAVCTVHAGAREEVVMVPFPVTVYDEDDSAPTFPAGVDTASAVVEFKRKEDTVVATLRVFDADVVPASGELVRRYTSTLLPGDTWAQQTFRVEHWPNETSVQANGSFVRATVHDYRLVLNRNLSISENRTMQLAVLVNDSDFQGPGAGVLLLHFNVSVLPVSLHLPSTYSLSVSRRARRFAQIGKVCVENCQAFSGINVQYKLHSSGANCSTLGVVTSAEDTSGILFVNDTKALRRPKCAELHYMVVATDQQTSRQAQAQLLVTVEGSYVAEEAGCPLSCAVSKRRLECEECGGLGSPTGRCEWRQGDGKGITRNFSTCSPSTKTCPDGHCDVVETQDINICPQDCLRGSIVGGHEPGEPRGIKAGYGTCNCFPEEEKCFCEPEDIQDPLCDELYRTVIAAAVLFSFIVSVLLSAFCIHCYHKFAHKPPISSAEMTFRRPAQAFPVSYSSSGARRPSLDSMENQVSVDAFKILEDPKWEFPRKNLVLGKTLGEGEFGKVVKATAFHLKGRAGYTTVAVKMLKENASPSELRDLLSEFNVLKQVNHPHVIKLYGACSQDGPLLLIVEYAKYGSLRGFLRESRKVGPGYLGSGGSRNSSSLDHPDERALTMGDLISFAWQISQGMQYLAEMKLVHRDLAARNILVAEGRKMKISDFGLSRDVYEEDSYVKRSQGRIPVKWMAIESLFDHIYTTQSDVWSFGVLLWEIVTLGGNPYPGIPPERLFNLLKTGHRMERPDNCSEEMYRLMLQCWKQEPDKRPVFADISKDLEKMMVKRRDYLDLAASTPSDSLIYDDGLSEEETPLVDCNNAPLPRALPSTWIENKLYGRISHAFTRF
Description: FIG. 9: Photographs of blots showing effects of Pz-1 on cellular phosphorylation events in tumors induced in nude mice (from FIG. 8) by injection of NIH3T3 fibroblasts transformed by RET/C634Y or HRAS/G12V. […] Some of the vehicle-treated tumors, at the end of the tumor growth experiment described in FIG. 8, were treated for 48 hr with different doses of Pz-1 (TR) or left untreated (NT). At the end of the treatment, 50 μg of tumor protein lysates were subjected to immunoblotting with anti-phospho-Y1062 (αp1062) and anti-phospho-905 (αpY905) RET antibodies, anti-phospho-MAPK (αpMAPK, T302/Y304), anti-phospho-SHC (αpSHC, Y317), anti-phospho-p70S6K (αpp70S6K, T389), anti-phospho-S6RP (αpS6RP, S235/S236), and anti-phospho-VEGFR2 (αpVEGFR2 pY1175) antibodies. The blots were normalized using anti-RET (αRET), anti-SHC (αSHC), anti-MAPK (αMAPK), anti-p70S6K (αp70S6K), anti-S6RP (αS6RP) or anti-VEGFR2 (αVEGFR2) antibodies.
Some of the vehicle-treated tumors, at the end of the tumor growth experiment reported in FIG. 8, were treated for 48 hr with different doses of Pz-1 (1.0 or 3.0 mg/kg daily) or left untreated. […]

Cn1cc(-c2ccc3c(c2)ncn3-c2ccc(CC(=O)Nc3cc(C(C)(C)C)on3)cc2)cn1 [Pz-1, N-(5-(tert-butyl)isoxazol-3-yl)-2-(4-(5-(1-methyl-1H-pyrazol-4-yl)-1H-benzo[d]imidazol-1-yl)phenyl)acetamide]
concentration at which pMAPK was inhibited (pMAPK): 100 nM | RET phosphorylation and intracellular signaling (SHC, MAPK, p70S6K and S6RP) in tumors (RET/C634Y): inhibited
